Measured values published in US20220098201A1, “THE MONOHYDRATE OF ROGARATINIB HYDROCHLORIDE AND SOLID STATES THEREOF” (Bayer Aktiengesellschaft, priority 2019, published 2022).

Assays:
[1] = Storage of solid forms in closed vessels at 25° C. and 50° C.; format: physicochemical; details: for Modification after storage in closed vessels: 12 months, humidity not set
[2] = Moisture sorption: storage at various humidities, thermogravimetric analysis; format: physicochemical; details: for Mass loss after storage / Modification after storage: 25° C., 12 months
Description: TGA thermograms were recorded using thermobalances (model TGA7 and Pyris 1) from Perkin-Elmer.
The measurements were performed with a heating rate of 10 Kmin^−1 using open platinum pans. Flow gas was nitrogen. There was no sample preparation.
Their moisture content was then determined by thermogravimetric analysis.

[3] = Hygroscopicity and chemical stability of the di-hydrochloride on standing in air; format: physicochemical
[4] = Solubility in water compared with free base; format: physicochemical; details: compared with the free base
Bioavailability = details: stated as result of better solubility than the free base
[5] = Stability in brown glass bottle; format: physicochemical; details: for Assay calc. on dried substance / Ethanol / Material and colour / Sum of all organic impurities / Water: brown glass bottle
[6] = Slurry experiments of monohydrate (A) in various solvents; format: physicochemical
Excerpt: The residues were filtered off and dried at room temperature and ambient humidity. Reproducible preparation was not possible for all solid state forms.

[7] = Crystalline form (XRPD) in coated tablet during storage; format: physicochemical; details: see Table 5
Description: X-Ray diffraction patterns were recorded at room temperature using XRD-diffractometers X'Pert PRO (PANalytical) and STOE STADI-P (radiation Cu K alpha 1, wavelength 1.5406 Å). There was no sample preparation. All X-Ray reflections are quoted as °2θ (theta) values (peak maxima) with a resolution of ±0.2°.
Tablets with compound III were manufactured according to the method described above and an initial XRPD was recorded.

For COCc1c(-c2cc3cc(C)cc(OC)c3s2)c2c(N)ncnn2c1CN1CCNC(=O)C1.Cl.O.O.O [Trihydrate], the “Modification after storage in closed vessels” value ([1]; 25° C.) was “Trihydrate”, the “Mass loss after storage” value ([2]; 85% r. h.) was 3.3% and the Modification after storage ([2]; 85% r. h.) was “Monohydrate*”. The “Mass loss after storage” value ([2]; 97% r. h.) was 6.0%, the Modification after storage ([2]; 97% r. h.) was “Monohydrate*” and the “Change of solid form during storage at high humidity” value ([2]; storage at high humidity) was “changed into the monohydrate”.

With COCc1c(-c2cc3cc(C)cc(OC)c3s2)c2c(N)ncnn2c1CN1CCNC(=O)C1.Cl.O.O [Dihydrate (B)] the “Change of solid form during storage in a closed vessel” value ([1]; closed vessel, within two weeks) was “transformed into the monohydrate” and the “Change of solid form of isolated residue” value ([1]; stored at room temperature, in the course of two weeks) was “transformed into the Monohydrate”.

In the case of COCc1c(-c2cc3cc(C)cc(OC)c3s2)c2c(N)ncnn2c1CN1CCNC(=O)C1.Cl.Cl [di-hydrochloride, di-hydrochloride of 4-{[4-Amino-6-(methoxymethyl)-5-(7-methoxy-5-methyl-1-benzothiophen-2-yl)pyrrolo[2,1-f][1,2,4]triazin-7-yl]methyl}piperazin-2-one], the Hygroscopicity [3] is reported as “very hydroscopic” and the chemical stability ([3]; on standing in the air) is reported as “loses HCl on standing in the air”.

In the case of COCc1c(-c2cc3cc(C)cc(OC)c3s2)c2c(N)ncnn2c1CN1CCNC(=O)C1.Cl.O [Compound (III), 4-{[4-amino-6-(methoxymethyl)-5-(7-methoxy-5-methyl-1-benzothiophen-2-yl)pyrrolo[2,1-f][1,2,4]triazin-7-yl]methyl}piperazin-2-one hydrochloride hydrate], the “Modification after storage in closed vessels” value ([1]; 25° C.) is reported as “Monohydrate”, the “Modification after storage in closed vessels” value ([1]; 50° C.) is reported as “Monohydrate” and the physical stability ([1]; Storage at 25 and 50° C. for 12 month) is reported as “no changes in stability”. For the same molecule, the solubility in water [4] was “significantly better solubility in water”, the “Mass loss after storage” value ([2]; 15% r. h.) was 3.7% and the Modification after storage ([2]; 15% r. h.) was “Monohydrate”. For the same molecule, the “Mass loss after storage” value ([2]; 85% r. h.) was 3.7%, the Modification after storage ([2]; 85% r. h.) was “Monohydrate” and the “Mass loss after storage” value ([2]; 97% r. h.) was 3.7%. For the same molecule, the Modification after storage ([2]; 97% r. h.) was “Monohydrate”, the Hygroscopicity ([2]; conclusion from moisture sorption tests, 12 month at 15%, 85% and 97% r.h.) was “not hygroscopic” and the uptake of water ([2]; stored for 12 month at 15% r.h., 85% r.h and 97% r.h.) was “no uptake of water”. For the same molecule, the bioavailability (Bioavailability) was “enhanced bioavailability”, the “Stability during storage over a long period of time” value [5] was “very stable during storage” and the “Assay calc. on dried substance” value ([5]; 25° C./60% r.h., 3 months) was 99.8%. The Ethanol ([5]; 25° C./60% r.h., 3 months) was 0.460%, the Material and colour ([5]; 25° C./60% r.h., 3 months) was “slightly grey-tinged solid” and the “Sum of all organic impurities” value ([5]; 25° C./60% r.h., 3 months) was 1.08%. The Water ([5]; 25° C./60% r.h., 3 months) was 3.9%, the “Assay calc. on dried substance” value ([5]; 25° C./60% r.h., 6 months) was 100.0% and the Ethanol ([5]; 25° C./60% r.h., 6 months) was 0.467%. The Material and colour ([5]; 25° C./60% r.h., 6 months) was “slightly grey-tinged solid”, the “Sum of all organic impurities” value ([5]; 25° C./60% r.h., 6 months) was 1.05% and the Water ([5]; 25° C./60% r.h., 6 months) was 3.5%. For the same molecule, the “Assay calc. on dried substance” value ([5]; 25° C./60% r.h., 9 months) was 100.0%, the Ethanol ([5]; 25° C./60% r.h., 9 months) was 0.444% and the Material and colour ([5]; 25° C./60% r.h., 9 months) was “slightly grey-tinged solid”. The “Sum of all organic impurities” value ([5]; 25° C./60% r.h., 9 months) was 1.14%, the Water ([5]; 25° C./60% r.h., 9 months) was 3.5% and the “Assay calc. on dried substance” value ([5]; 25° C./60% r.h., 12 months) was 98.1%. The Ethanol ([5]; 25° C./60% r.h., 12 months) was 0.441%, the Material and colour ([5]; 25° C./60% r.h., 12 months) was “slightly grey-tinged solid” and the “Sum of all organic impurities” value ([5]; 25° C./60% r.h., 12 months) was 1.22%. For the same molecule, the Water ([5]; 25° C./60% r.h., 12 months) was 3.6%, the “Assay calc. on dried substance” value ([5]; 25° C./60% r.h., 18 months) was 100.4% and the Ethanol ([5]; 25° C./60% r.h., 18 months) was 0.434%. The Material and colour ([5]; 25° C./60% r.h., 18 months) was “slightly grey-tinged solid”, the “Sum of all organic impurities” value ([5]; 25° C./60% r.h., 18 months) was 1.17% and the Water ([5]; 25° C./60% r.h., 18 months) was 3.6%. The “Assay calc. on dried substance” value ([5]; 25° C./60% r.h., 24 months) was 98.8%, the Ethanol ([5]; 25° C./60% r.h., 24 months) was 0.415% and the Material and colour ([5]; 25° C./60% r.h., 24 months) was “slightly grey-tinged solid”. The “Sum of all organic impurities” value ([5]; 25° C./60% r.h., 24 months) was 1.14%, the Water ([5]; 25° C./60% r.h., 24 months) was 3.5% and the “Assay calc. on dried substance” value ([5]; 40° C./75% r.h., 3 months) was 98.4%. For the same molecule, the Ethanol ([5]; 40° C./75% r.h., 3 months) was 0.406%, the Material and colour ([5]; 40° C./75% r.h., 3 months) was “slightly grey-tinged solid” and the “Sum of all organic impurities” value ([5]; 40° C./75% r.h., 3 months) was 1.17%. For the same molecule, the Water ([5]; 40° C./75% r.h., 3 months) was 3.6%, the “Assay calc. on dried substance” value ([5]; 40° C./75% r.h., 6 months) was 99.7% and the Ethanol ([5]; 40° C./75% r.h., 6 months) was 0.435%. For the same molecule, the Material and colour ([5]; 40° C./75% r.h., 6 months) was “slightly grey-tinged solid”, the “Sum of all organic impurities” value ([5]; 40° C./75% r.h., 6 months) was 1.00% and the Water ([5]; 40° C./75% r.h., 6 months) was 3.4%. For the same molecule, the “Assay calc. on dried substance” value ([5]; initial) was 100.3%, the Ethanol ([5]; initial) was 0.533% and the Material and colour ([5]; initial) was “slightly grey-tinged solid”. The “Sum of all organic impurities” value ([5]; initial) was 1.03%, the Water ([5]; initial) was 3.5% and the chemical stability ([5]; during storage for several years) was “chemically stable”. The Modification residue ([6]; slurry in 1,4-Dioxane, 25 ° C., stirring time 1 week) was “Monohydrate (A)”, the Modification residue ([6]; slurry in Acetonitrile/water (1:1), 25 ° C., stirring time 1 week) was “Monohydrate (A)” and the Modification residue ([6]; slurry in Ethanol, 25 ° C., stirring time 4 weeks) was “Monohydrate (A)”. The Modification residue ([6]; slurry in Ethanol/water (1:1), 25 ° C., stirring time 1 week) was “Monohydrate (A)”, the Modification residue ([6]; slurry in Isopropanol, 0 ° C., stirring time 1 week) was “Monohydrate (A)” and the Modification residue ([6]; slurry in Isopropanol, 25 ° C., stirring time 4 weeks) was “Monohydrate (A)”. The Modification residue ([6]; slurry in Methanol, 0 ° C., stirring time 2 weeks) was “¾-Hydrate (D)”, the Modification residue ([6]; slurry in Methanol, 0 ° C., stirring time 5 weeks) was “Dihydrate (B)” and the Modification residue ([6]; slurry in Methanol, 25 ° C., stirring time 1 week) was “Monohydrate (A)”. The Modification residue ([6]; slurry in Tetrahydrofurane/water (1:1), 25 ° C., stirring time 4 weeks) was “Monohydrate (A)”, the Modification residue ([6]; slurry in Toluene, 25 ° C., stirring time 4 weeks) was “Monohydrate (A)” and the “Stability of the form in the tablet matrix” value [7] was “stable in the tablet matrix and does not change during storage”.
